What all share (assay type): in vivo
For assay [1], the system named is two-spotted spider mite (Tetranychus urticae). Put plainly: Tetranychus test (OP resistant/immersion treatment). Particulars: 100 ppm; bean plants immersed. The protocol: To prepare a suitable active compound preparation, 1 part by weight of active compound is mixed with the stated amounts of solvent and emulsifier and the concentrate is diluted to the desired concentration with emulsifier-containing water. Bean plants (Phaseolus vulgaris) which are severely infested by all stages of the two-spotted spider mite (Tetranychus urticae) are immersed into an active compound preparation of the desired concentration. After the desired time, the efficacy is determined in %. 100% means that all of the spider mites have been destroyed; 0% means that none of the spider mites have been destroyed.

Assay [2] concerns larvae of the mustard beetle (Phaedon cochleariae). The experiment in a line: Phaedon larvae test. The settings on record: after 7 days, cabbage leaves immersed. The protocol: (§1) To prepare a suitable active compound preparation, 1 part by weight of active compound is mixed with the stated amounts of solvent and emulsifier and the concentrate is diluted to the desired concentration with emulsifier-containing water. Cabbage leaves (Brassica oleracea) are treated by immersing in the active compound preparation of the desired concentration and populated with larvae of the mustard beetle (Phaedon cochleariae) while the leaves are still moist. After the desired time, the destruction rate is determined in %. 100% means that all the beetle larvae have been destroyed; 0% means that none of the beetle larvae have been destroyed.

Another assay deals with Meloidogyne incognita. The experiment in a line: Meloidogyne test. Particulars: active compound concentration 20 ppm; lettuce in sand. On the procedure: To prepare a suitable active compound preparation, 1 part by weight of active compound is mixed with the stated amounts of solvent and emulsifier and the concentrate is diluted to the desired concentration with water. Containers are filled with sand, active compound solution, Meloidogyne incognita egg/larval suspension and lettuce seeds. The lettuce seeds germinate and the plantlets develop. The galls develop on the roots. After the desired time, the nematicidal efficacy is determined in % with reference to gall formation. 100% means that no galls were found; 0% means that the number of galls on the treated plants corresponds to that of the untreated control.

Assay [3] deals with Digitaria. The experiment in a line: Pre-emergence test, Digitaria. Particulars: 125 g ai/ha, after three weeks. The protocol:
(§2) To prepare a suitable active compound preparation, 1 part by weight of active compound is mixed with the stated amount of solvent, the stated amount of emulsifier is added, and the concentrate is diluted with water to the desired concentration. Seeds of the test plants are sown in normal soil. After approximately 24 hours, the soil is sprayed with the active compound preparation in such a way that the active compound quantities desired in each case are applied per unit area. The concentration of the spray mixture is chosen such that the active compound quantities desired in each case are applied in 1000 l of water/ha. After three weeks, the degree of damage to the plants is scored in % damage in comparison with the development of the untreated control. The figures denote: • 0%=no effect (like untreated control) • 100%=total destruction

The test system of assay [4] is green peach aphid (Myzus persicae). Put plainly: Myzus test. Particulars: 500 ppm; after 6 days; cabbage leaves immersed. The protocol:
To prepare a suitable active compound preparation, 1 part by weight of active compound is mixed with the stated amounts of solvent and emulsifier and the concentrate is diluted to the desired concentration with emulsifier-containing water. Cabbage leaves (Brassica oleracea) which are severely infested by the green peach aphid (Myzus persicae) are treated by immersing into the active compound preparation of the desired concentration. After the desired time, the destruction rate is determined in %. 100% means that all of the aphids have been destroyed; 0% means that none of the aphids have been destroyed.

In another assay the test system is Matricaria. Put plainly: Pre-emergence test, Matricaria. Particulars: 125 g ai/ha, after three weeks. On the procedure: as §2
The subject of assay [5] is Sugar beet. Put plainly: Pre-emergence test, Sugar beet. The settings on record: 125 g ai/ha, after three weeks. On the procedure: as §2
The subject of assay [6] is Setaria. Put plainly: Pre-emergence test, Setaria. Particulars: 125 g ai/ha, after three weeks. On the procedure:
as §2

In another assay the test system is Lolium. The experiment in a line: Pre-emergence test, Lolium. Particulars: 125 g ai/ha, after three weeks. On the procedure:
as §2

The test system of the next assay is Avena fatua. The experiment in a line: Post-emergence test, Avena fatua. Particulars: 125 g ai/ha, after three weeks. The protocol: as §2, with “Test plants which have a height” for “Seeds”, “5 to 15 cm” for “the test plants”, “are” for “are sown in normal soil. After approximately 24 hours, the soil is”
The next assay concerns Alopecurus. Put plainly: Post-emergence test, Alopecurus. Particulars: 125 g ai/ha, after three weeks. The protocol:
as §2, with “Test plants which have a height” for “Seeds”, “5 to 15 cm” for “the test plants”, “are” for “are sown in normal soil. After approximately 24 hours, the soil is”

Assay [7] has as its system fall armyworm caterpillars (Spodoptera frugiperda). The experiment in a line: Spodoptera frugiperda test. Particulars: 500 ppm; after 7 days; cabbage leaves immersed. The protocol:
as §1, with “fall armyworm caterpillars (Spodoptera frugiperda)” for “mustard beetle (Phaedon cochleariae)”, “caterpillars” for “beetle larvae”

The test system of assay [8] is Sugar beet. Put plainly: Post-emergence test, Sugar beet. The settings on record: 125 g ai/ha, after three weeks. On the procedure:
as §2, with “Test plants which have a height” for “Seeds”, “5 to 15 cm” for “the test plants”, “are” for “are sown in normal soil. After approximately 24 hours, the soil is”

In assay [9] the test system is Setaria. The experiment in a line: Post-emergence test, Setaria. Particulars: 125 g ai/ha, after three weeks. On the procedure: as §2, with “Test plants which have a height” for “Seeds”, “5 to 15 cm” for “the test plants”, “are” for “are sown in normal soil. After approximately 24 hours, the soil is”
In assay [10] the test system is Digitaria. Put plainly: Post-emergence test, Digitaria. The settings on record: 125 g ai/ha, after three weeks. The protocol: as §2, with “Test plants which have a height” for “Seeds”, “5 to 15 cm” for “the test plants”, “are” for “are sown in normal soil. After approximately 24 hours, the soil is”
For a further assay, the system named is Wheat. Put plainly: Post-emergence test, Wheat. The settings on record: 125 g ai/ha, after three weeks. On the procedure:
as §2, with “Test plants which have a height” for “Seeds”, “5 to 15 cm” for “the test plants”, “are” for “are sown in normal soil. After approximately 24 hours, the soil is”

`Cc1sc(-c2ccc(Cl)cc2)nc1C1=C(O)CC(C)(C)NC1=O` [Example I-1-a-1]: the “destruction rate (efficacy)” value in assay [1] worked out at 98%. The destruction rate in assay [2] (1000 ppm) is listed as 100%.

For the compound `CCOC(=O)OC1=C(c2nc(-c3ccc(Cl)cc3)sc2C)C(=O)NC(C)(C)C1` [Example I-1-c-1], the “destruction rate (nematicidal efficacy with reference to gall formation)” value in the assay on Meloidogyne incognita is on record as 100%.

Take `Cc1sc(-c2ccc(Cl)cc2)nc1C1=C(O)C(C)(C)C(C)(C)OC1=O` [Example I-2-a-1]: the “degree of damage to the plants (% damage), Digitaria” value in the assay on Digitaria [3] is listed as 100%; in the assay with Digitaria [10], 95%. In addition, the destruction rate in [4] is on record as 90%; in assay [7] it was 100%; in assay [2] (500 ppm), 100%. The “destruction rate (efficacy)” value in assay [1] is on record as 100%. For the same compound, in the assay on Matricaria, the “degree of damage to the plants (% damage), Matricaria” value was 95%. Further, the “degree of damage to the plants (% damage), Sugar beet” value in the assay on Sugar beet [5] and in the assay on Sugar beet [8] was 0% each time. Also, the “degree of damage to the plants (% damage), Setaria” value in the assay on Setaria [6] and in the assay on Setaria [9] was 100% each time. Also, the “degree of damage to the plants (% damage), Lolium” value in the assay with Lolium is 100%. Further, in the assay with Avena fatua, the “degree of damage to the plants (% damage), Avena fatua” value is 90%. The “degree of damage to the plants (% damage), Alopecurus” value with Alopecurus came to 90%. Moreover, in the assay on Meloidogyne incognita, the “destruction rate (nematicidal efficacy with reference to gall formation)” value was 100%. Also, the “degree of damage to the plants (% damage), Wheat” value in the assay with Wheat came out at 10%.

The values are drawn from patent US7566731B2, “Hetaryl substituted homotetramic and homotetronic acids and their use thereof as pesticides” (Bayer CropScience AG, priority 2001, dated 2009).
